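Growth conditions: 96-well plates. Treatment: test compound, 48 hours, 5 concentrations. Analysis: linear interpolation between bracketing concentrations; unreached endpoints set to highest concentration. GI50: concentration for 50% inhibition of growth.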 Active and inactive are the calls of the source. No stated cut-off is given here; in the data, active = GI50 up to about 1.1 µM and inactive = higher.
Key:
Test in all cases: DTP human tumour cell line panel, 48 h
786-0 = test system: 786-0
DMS-273 = test system: DMS-273
HCC 2998 = test system: HCC 2998
HCT-116 = test system: HCT-116
HL-60 = test system: HL-60
IGROV-1 = test system: IGROV-1
K562 = test system: K562
KM12 = test system: KM12
LOX IMVI = test system: LOX IMVI
MOLT-4 = test system: MOLT-4
NCI-H460 = test system: NCI-H460
RPMI-8226 = test system: RPMI-8226
SK-OV-3 = test system: SK-OV-3
SN12C = test system: SN12C
SNB-19 = test system: SNB-19
SNB-75 = test system: SNB-75
UO-31 = test system: UO-31
TK-10 = test system: TK-10
DU-145 = test system: DU-145
MCF7 = test system: MCF7

Measured: GI50

N=C(N)N/N=C(/c1nc2ccc([N+](=O)[O-])cc2[nH]c1=O)C(O)c1ccc([N+](=O)[O-])cc1 (stereo not given)
inactive: 786-0 > 100 µM | DMS-273 55.7 µM | HCC 2998 28.5 µM | HCT-116 > 100 µM | HL-60 > 100 µM | IGROV-1 > 100 µM | K562 > 100 µM | KM12 36.1 µM | LOX IMVI 38.5 µM | MOLT-4 > 100 µM | NCI-H460 51.3 µM | RPMI-8226 > 100 µM | SK-OV-3 > 100 µM | SN12C > 100 µM | SNB-19 > 100 µM | SNB-75 86.1 µM | UO-31 3.03 µM

O=[N+]([O-])c1ccc(Cc2nc3ccccc3s2)cc1
inactive: 786-0 > 100 µM | DMS-273 82.4 µM | HCC 2998 > 100 µM | HCT-116 38.9 µM | HL-60 63.4 µM | IGROV-1 > 100 µM | K562 43.7 µM | KM12 > 100 µM | MOLT-4 75.2 µM | NCI-H460 > 100 µM | RPMI-8226 49.4 µM | SK-OV-3 > 100 µM | SN12C 36.1 µM | SNB-19 > 100 µM | SNB-75 > 100 µM | TK-10 > 100 µM | UO-31 > 100 µM

CSC(C1c2ccccc2N(C)c2[nH]c(=O)n(C)c(=O)c21)S(=O)(=O)c1ccc(C)cc1 (stereo not given)
inactive: 786-0 > 100 µM | DMS-273 43.5 µM | HCC 2998 > 100 µM | HCT-116 68.2 µM | HL-60 50.2 µM | IGROV-1 > 100 µM | K562 43.6 µM | LOX IMVI > 100 µM | MOLT-4 40 µM | RPMI-8226 > 10 µM | SK-OV-3 > 100 µM | SN12C > 100 µM | SNB-19 > 100 µM | SNB-75 68.5 µM | TK-10 > 100 µM | UO-31 > 100 µM

Cn1cc2c(n1)c(N/N=C/c1ccccc1)nn1nnnc21
inactive: 786-0 > 100 µM | DMS-273 > 100 µM | HCC 2998 > 100 µM | HCT-116 > 100 µM | HL-60 > 100 µM | IGROV-1 > 100 µM | K562 > 100 µM | LOX IMVI > 100 µM | MOLT-4 > 100 µM | NCI-H460 > 100 µM | RPMI-8226 > 100 µM | SK-OV-3 > 100 µM | SN12C > 100 µM | SNB-19 > 100 µM | SNB-75 > 100 µM | TK-10 > 100 µM | UO-31 > 100 µM

c1ccc(N2CCN(CCN3CCc4c([nH]c5ccccc45)C3c3cccnc3)CC2)cc1 (stereo not given)
inactive: 786-0 33.1 µM | DMS-273 > 100 µM | HCC 2998 > 100 µM | HCT-116 46.8 µM | HL-60 > 100 µM | IGROV-1 > 100 µM | K562 7.14 µM | KM12 > 100 µM | MOLT-4 > 100 µM | NCI-H460 > 100 µM | RPMI-8226 > 100 µM | SK-OV-3 24 µM | SN12C > 100 µM | SNB-19 > 100 µM | SNB-75 3.07 µM | TK-10 > 100 µM | UO-31 23.8 µM

O=c1c2ccccc2nc(-c2ccccc2)n1NC(=S)Nc1cccc(Cl)c1
inactive: 786-0 68.1 µM | DMS-273 66.4 µM | HCT-116 95.7 µM | HL-60 > 100 µM | IGROV-1 > 100 µM | K562 > 100 µM | KM12 > 100 µM | LOX IMVI > 100 µM | MOLT-4 > 100 µM | NCI-H460 > 100 µM | RPMI-8226 > 100 µM | SK-OV-3 40.4 µM | SN12C > 100 µM | SNB-75 28.4 µM | TK-10 36.6 µM | UO-31 89.1 µM

COC(=O)NN=C1C(C)(C)C(=O)C1(C)C
inactive: 786-0 > 100 µM | DMS-273 > 100 µM | HCC 2998 > 100 µM | HCT-116 > 100 µM | HL-60 > 100 µM | IGROV-1 > 100 µM | K562 > 100 µM | KM12 > 100 µM | LOX IMVI > 100 µM | MOLT-4 > 100 µM | NCI-H460 > 100 µM | RPMI-8226 > 100 µM | SK-OV-3 > 100 µM | SNB-75 > 100 µM | TK-10 > 100 µM | UO-31 > 100 µM

CC1(C)OC(=O)C(C#N)=C1/C=C/c1coc2ccc(Cl)cc2c1=O
inactive: 786-0 37.2 µM | DMS-273 35.1 µM | HCC 2998 34.8 µM | HCT-116 33 µM | IGROV-1 58.3 µM | K562 27.5 µM | KM12 41.3 µM | LOX IMVI 18.9 µM | MOLT-4 26.1 µM | NCI-H460 18.8 µM | RPMI-8226 26.9 µM | SK-OV-3 19.4 µM | SN12C 30.1 µM | SNB-19 30.4 µM | SNB-75 14.9 µM | UO-31 27.1 µM

CP(=O)(CCSc1ccccc1)c1ccccc1 (stereo not given)
inactive: 786-0 > 100 µM | DMS-273 > 100 µM | HCC 2998 > 100 µM | HCT-116 > 100 µM | HL-60 35.6 µM | IGROV-1 > 100 µM | K562 > 100 µM | LOX IMVI > 100 µM | MOLT-4 > 100 µM | NCI-H460 > 100 µM | RPMI-8226 > 100 µM | SK-OV-3 > 100 µM | SN12C > 100 µM | SNB-19 > 100 µM | SNB-75 > 100 µM | TK-10 > 100 µM | UO-31 > 100 µM

CCOC(=O)/C(=C\c1cccs1)P(=O)(OCC)OCC
inactive: 786-0 21.9 µM | DMS-273 34.6 µM | HCC 2998 18.4 µM | HCT-116 19.2 µM | HL-60 13.9 µM | K562 29.9 µM | KM12 17.1 µM | LOX IMVI 15.7 µM | MOLT-4 25.8 µM | NCI-H460 20.1 µM | RPMI-8226 20.4 µM | SK-OV-3 38.9 µM | SN12C 19.7 µM | SNB-19 53.2 µM | SNB-75 35.6 µM | TK-10 36.6 µM | UO-31 19.7 µM

CC1CCCCCC(=O)c2c(O)cc(O)cc2CC(=O)O1 (stereo not given) [CURVULARIN]
inactive: 786-0 > 100 µM | DU-145 > 100 µM | HCC 2998 > 100 µM | HCT-116 > 100 µM | HL-60 54.3 µM | IGROV-1 > 100 µM | K562 41.6 µM | KM12 > 100 µM | LOX IMVI 43.9 µM | MCF7 > 100 µM | MOLT-4 73.8 µM | NCI-H460 98.2 µM | RPMI-8226 67.8 µM | SK-OV-3 > 100 µM | SN12C > 100 µM | SNB-19 > 100 µM | SNB-75 57.4 µM | TK-10 90.2 µM | UO-31 45 µM

— ChEMBL document CHEMBL1201862, “PubChem BioAssay data set” (2004)
